From patent US12077503B2, “Substituted cyclic amides and their use as herbicides” (FMC CORPORATION, priority 2015, dated 2024)
Where two headings read alike, the source gives them in different places.

Key:
Assay type in all cases: in vivo
rice (Oryra sativa) = assay: Test B flooded paddy test; details: Oryza sativa, Flood, 250 g ai/ha; scale of 0 to 100 where 0 is no effect and 100 is complete control; read-out: Rice plant response rating
Summary of the method: (§1)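 Flooding to 3 cm over soil accompanied treatment, which consisted of adding compound to the standing water around 2-leaf plants; depth was then maintained. Visual assessment versus controls followed at 13 to 15 d (scale 0–100, 0 meaning no effect).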

[1] = test system: sedge, umbrella (small-flower umbrella sedge, Cyperus difformis); assay: Test B flooded paddy test; details: Cyperus difformis, Flood, 250 g ai/ha; scale of 0 to 100 where 0 is no effect and 100 is complete control; read-out: Sedge, Umbrella plant response rating
Summary of the method: as §1

[2] = test system: ducksalad (Heteranthera limosa); assay: Test B flooded paddy test; details: Heteranthera limosa, Flood, 250 g ai/ha; scale of 0 to 100 where 0 is no effect and 100 is complete control; read-out: Ducksalad plant response rating
Summary of the method: as §1

[3] = test system: barnyardgrass (Echinochloa crus-galli); assay: Test B flooded paddy test; details: Echinochloa crus-galli, Flood, 250 g ai/ha; scale of 0 to 100 where 0 is no effect and 100 is complete control; read-out: Barnyardgrass plant response rating
Summary of the method: as §1

[4] = test system: pigweed (Amaranthus retroflexus); assay: Test A preemergence; details: Amaranthus retroflexus, pre-emergence, 240 h; for pest or weed control at 125 g/ha: 125 g ai/ha; for pest or weed control at 500 g/ha: 500 g ai/ha
corn (Zea mays) = assay: Test A postemergence; details: Zea mays, post-emergence, 240 h, 125 g ai/ha; for Corn plant response rating (crop injury, 0 = no effect, 100 = complete kill) at 125 g/ha: Postemergence, visual injury after approximately 10 d, 0 to 100 scale where 0 is no effect and 100 is complete control; for plant injury at 125 g/ha: postemergence, visual injury rating after approximately 10 d, read-out: Corn plant response rating (0 to 100 scale, 0 no effect, 100 complete control)
Summary of the method: (§2)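 Seeded soil received test chemicals as a preemergence directed spray, and seedlings at one to two leaves, 2–10 cm tall, received them postemergence, in a non-phytotoxic, surfactant-containing solvent mixture. Pots were held in a greenhouse for approximately 10 d, then rated for injury from 0, no effect, to 100, complete control.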

[5] = test system: giant foxtail (Setaria faberii); assay: Test A postemergence; details: Setaria faberi, post-emergence, 240 h, 125 g ai/ha
Summary of the method: as §2

[6] = test system: wheat (Triticum aestivum); assay: Test A postemergence; details: Triticum aestivum, post-emergence, 240 h, 125 g ai/ha
Summary of the method: as §2

[7] = test system: ryegrass, Italian (Italian ryegrass, Lolium multiflorum); assay: Test A postemergence; details: Lolium multiflorum, post-emergence, 240 h, 125 g ai/ha
Summary of the method: as §2

[8] = test system: barnyardgrass (Echinochloa crus-galli); assay: Test A postemergence; details: Echinochloa crus-galli, post-emergence, 240 h, 125 g ai/ha
Summary of the method: as §2

Kochia (Kochia scoparia) = assay: Test A postemergence; details: Bassia scoparia, post-emergence, 240 h, 125 g ai/ha
Summary of the method: as §2

[9] = test system: ragweed (common ragweed, Ambrosia elatior); assay: Test A postemergence; details: Ambrosia artemisiifolia, post-emergence, 240 h, 125 g ai/ha
Summary of the method: as §2

[10] = test system: Galium (catchweed bedstraw, Galium aparine); assay: Test A postemergence; details: Galium, post-emergence, 240 h, 125 g ai/ha
Summary of the method: as §2

[11] = test system: pigweed (Amaranthus retroflexus); assay: Test A postemergence; details: Amaranthus retroflexus, post-emergence, 240 h, 125 g ai/ha
Summary of the method: as §2

[12] = test system: blackgrass (Alopecurus myosuroides); assay: Test A postemergence; details: Alopecurus myosuroides, post-emergence, 240 h, 125 g ai/ha
Summary of the method: as §2

[13] = Preemergence, visual injury rating after approximately 10 d, read-out: Pigweed plant response rating (0 to 100 scale, 0 is no effect, 100 is complete control)
[14] = preemergence, visual injury rating about 10 d after treatment, 0 to 100 scale (0 no effect, 100 complete control), read-out: Pigweed plant response rating
[15] = Postemergence, visual injury after approximately 10 d, 0 to 100 scale where 0 is no effect and 100 is complete control, read-out: Plant response rating, Foxtail, Giant
[16] = Postemergence, visual injury after approximately 10 d, 0 to 100 scale where 0 is no effect and 100 is complete control, read-out: Plant response rating, Wheat
[17] = Postemergence, visual injury after approximately 10 d, 0 to 100 scale where 0 is no effect and 100 is complete control, read-out: Plant response rating, Ryegrass, Italian
[18] = Postemergence, visual injury after approximately 10 d, 0 to 100 scale where 0 is no effect and 100 is complete control, read-out: Plant response rating, Barnyardgrass
[19] = Postemergence, visual injury after approximately 10 d, 0 to 100 scale where 0 is no effect and 100 is complete control, read-out: Plant response rating, Kochia
[20] = Postemergence, visual injury after approximately 10 d, 0 to 100 scale where 0 is no effect and 100 is complete control, read-out: Plant response rating, Ragweed
[21] = Postemergence, visual injury after approximately 10 d, 0 to 100 scale where 0 is no effect and 100 is complete control, read-out: Plant response rating, Galium
[22] = Postemergence, visual injury after approximately 10 d, 0 to 100 scale where 0 is no effect and 100 is complete control, read-out: Plant response rating, Pigweed
[23] = Postemergence, visual injury after approximately 10 d, 0 to 100 scale where 0 is no effect and 100 is complete control, read-out: Plant response rating, Blackgrass
[24] = preemergence, 0 to 100 scale where 0 is no effect and 100 is complete control, read-out: Pigweed plant response rating
[25] = Preemergence, visual injury vs untreated controls after approximately 10 d, read-out: Pigweed plant response rating (0 to 100 scale where 0 is no effect and 100 is complete control)
[26] = postemergence, visual injury rating after approximately 10 d, read-out: Foxtail, Giant plant response rating (0 to 100 scale, 0 no effect, 100 complete control)
[27] = postemergence, visual injury rating after approximately 10 d, read-out: Wheat plant response rating (0 to 100 scale, 0 no effect, 100 complete control)
[28] = postemergence, visual injury rating after approximately 10 d, read-out: Ryegrass, Italian plant response rating (0 to 100 scale, 0 no effect, 100 complete control)
[29] = postemergence, visual injury rating after approximately 10 d, read-out: Barnyardgrass plant response rating (0 to 100 scale, 0 no effect, 100 complete control)
[30] = postemergence, visual injury rating after approximately 10 d, read-out: Kochia plant response rating (0 to 100 scale, 0 no effect, 100 complete control)
[31] = postemergence, visual injury rating after approximately 10 d, read-out: Ragweed plant response rating (0 to 100 scale, 0 no effect, 100 complete control)
[32] = postemergence, visual injury rating after approximately 10 d, read-out: Galium plant response rating (0 to 100 scale, 0 no effect, 100 complete control)
[33] = postemergence, visual injury rating after approximately 10 d, read-out: Pigweed plant response rating (0 to 100 scale, 0 no effect, 100 complete control)
[34] = postemergence, visual injury rating after approximately 10 d, read-out: Blackgrass plant response rating (0 to 100 scale, 0 no effect, 100 complete control)

Row | SMILES | pest or weed control at 250 g/ha (rice (Oryra sativa)) [%] | pest or weed control at 250 g/ha [1] [%] | pest or weed control at 250 g/ha [2] [%] | pest or weed control at 250 g/ha [3] [%] | pest or weed control at 125 g/ha [4, 13] [%] | pest or weed control at 500 g/ha [4, 14] [%] | Corn plant response rating (crop injury, 0 = no effect, 100 = complete kill) at 125 g/ha (corn (Zea mays)) [%] | pest or weed control at 125 g/ha [5, 15] [%] | plant injury at 125 g/ha [6, 16] [%] | pest or weed control at 125 g/ha [7, 17] [%] | pest or weed control at 125 g/ha [8, 18] [%] | pest or weed control at 125 g/ha (Kochia (Kochia scoparia); [19]) [%] | pest or weed control at 125 g/ha [9, 20] [%] | pest or weed control at 125 g/ha [10, 21] [%] | pest or weed control at 125 g/ha [11, 22] [%] | pest or weed control at 125 g/ha [12, 23] [%] | pest or weed control at 125 g/ha [4, 24] [%] | pest or weed control at 500 g/ha [4, 25] [%] | plant injury at 125 g/ha (corn (Zea mays)) [%] | pest or weed control at 125 g/ha [5, 26] [%] | further results
1 | Cc1ccc([C@H]2CNC(=S)[C@@H]2C(=O)Nc2cccc(F)c2F)cc1 (racemic) [Compound 946] | 0 | 0 | 0 | 0 | 0 | 0 | 0 | 0 | 0 | 0 | 60 | 0 | 0 | 0 | 0 | 0 | – | – | – | – | –
2 | Cc1c(F)ccc([C@H]2CNC(=O)[C@@H]2C(=O)Nc2ccccc2S(C)(=O)=O)c1F [Compound 832] | 15 | 0 | 100 | 0 | – | – | – | – | – | – | – | – | – | – | – | – | 0 | 30 | 0 | 0 | plant injury at 125 g/ha [6, 27]: 0%; pest or weed control at 125 g/ha [7, 28]: 20%; pest or weed control at 125 g/ha [8, 29]: 70%; pest or weed control at 125 g/ha (Kochia (Kochia scoparia); [30]): 20%; pest or weed control at 125 g/ha [9, 31]: 20%; pest or weed control at 125 g/ha [10, 32]: 50%; pest or weed control at 125 g/ha [11, 33]: 0%; pest or weed control at 125 g/ha [12, 34]: 0%
3 | Cc1cc([C@H]2CN(C)C(=O)[C@@H]2C(=O)Nc2ccccc2S(C)(=O)=O)ccc1Cl [Compound 944] | 0 | 0 | 75 | 40 | 0 | 20 | 30 | 90 | 40 | 30 | 80 | 0 | 40 | 20 | 30 | 60 | – | – | – | – | –
4 | CN1C[C@H](c2cc(F)c(F)c(F)c2)[C@@H](C(=O)Nc2ccccc2S(C)(=O)=O)C1=O [Compound 880] | 0 | 0 | 100 | 60 | – | – | – | – | – | – | – | – | – | – | – | – | 70 | 90 | 20 | 80 | plant injury at 125 g/ha [6, 27]: 40%; pest or weed control at 125 g/ha [7, 28]: 50%; pest or weed control at 125 g/ha [8, 29]: 90%; pest or weed control at 125 g/ha (Kochia (Kochia scoparia); [30]): 20%; pest or weed control at 125 g/ha [9, 31]: 40%; pest or weed control at 125 g/ha [10, 32]: 60%; pest or weed control at 125 g/ha [11, 33]: 50%; pest or weed control at 125 g/ha [12, 34]: 0%
5 | CC(C)COc1cccc([C@H]2CNC(=O)[C@@H]2C(=O)Nc2ccc(F)cc2F)c1 [Compound 966] | 0 | 0 | 60 | 0 | 0 | 0 | 0 | 40 | 0 | 0 | 60 | 0 | 0 | 20 | 0 | 20 | – | – | – | – | –
